Results from PMC11578424, “Discovery of novel 2,4-diarylaminopyrimidine hydrazone derivatives as potent anti-thyroid cancer agents capable of inhibiting FAK” (Journal of Enzyme Inhibition and Medicinal Chemistry, 2024).
Entries after “also recorded” stand apart in the source; their conditions may differ.

Tests used:
[1] = tested on: thyroid cancer cells TPC-1; test: EdU staining assay; assay type: cell-based; conditions: TPC-1 cells, 48 h
Experimental: TCP-1 cells are treated with compound 14f, followed by the addition of an equal volume of 1X EdU working solution to the drug-containing medium, and incubated under conditions of 37 °C and 5% CO2 for 4 h. After incubation, the cells are fixed with 4% paraformaldehyde for 15 min. The fixative is then removed, and the cells are permeabilized with PBS containing 0.3% Triton X-100 at room temperature. After washing, the Click reaction working solution is added and incubated at 37 °C for 30 min. The cells are then washed and stained with a prepared Hoechst staining solution for 10 min to stain the cell nuclei. After staining, the staining solution is removed, the cells are washed, and images are captured and saved using a fluorescence microscope.

TPC-1 cells [2] = test: Cell cycle distribution; assay type: cell-based; conditions: 48-h treatment
EGFR = EGFR (Homo sapiens, UniProt P00533); test: Kinase inhibition assay (Kinase-Glo Plus); assay type: biochemical; conditions: Figure 3A; 10 µM ATP; read-out: IC50 (nmol/L) EGFR
EGFR, sequence (P00533 25-1210, species assumed): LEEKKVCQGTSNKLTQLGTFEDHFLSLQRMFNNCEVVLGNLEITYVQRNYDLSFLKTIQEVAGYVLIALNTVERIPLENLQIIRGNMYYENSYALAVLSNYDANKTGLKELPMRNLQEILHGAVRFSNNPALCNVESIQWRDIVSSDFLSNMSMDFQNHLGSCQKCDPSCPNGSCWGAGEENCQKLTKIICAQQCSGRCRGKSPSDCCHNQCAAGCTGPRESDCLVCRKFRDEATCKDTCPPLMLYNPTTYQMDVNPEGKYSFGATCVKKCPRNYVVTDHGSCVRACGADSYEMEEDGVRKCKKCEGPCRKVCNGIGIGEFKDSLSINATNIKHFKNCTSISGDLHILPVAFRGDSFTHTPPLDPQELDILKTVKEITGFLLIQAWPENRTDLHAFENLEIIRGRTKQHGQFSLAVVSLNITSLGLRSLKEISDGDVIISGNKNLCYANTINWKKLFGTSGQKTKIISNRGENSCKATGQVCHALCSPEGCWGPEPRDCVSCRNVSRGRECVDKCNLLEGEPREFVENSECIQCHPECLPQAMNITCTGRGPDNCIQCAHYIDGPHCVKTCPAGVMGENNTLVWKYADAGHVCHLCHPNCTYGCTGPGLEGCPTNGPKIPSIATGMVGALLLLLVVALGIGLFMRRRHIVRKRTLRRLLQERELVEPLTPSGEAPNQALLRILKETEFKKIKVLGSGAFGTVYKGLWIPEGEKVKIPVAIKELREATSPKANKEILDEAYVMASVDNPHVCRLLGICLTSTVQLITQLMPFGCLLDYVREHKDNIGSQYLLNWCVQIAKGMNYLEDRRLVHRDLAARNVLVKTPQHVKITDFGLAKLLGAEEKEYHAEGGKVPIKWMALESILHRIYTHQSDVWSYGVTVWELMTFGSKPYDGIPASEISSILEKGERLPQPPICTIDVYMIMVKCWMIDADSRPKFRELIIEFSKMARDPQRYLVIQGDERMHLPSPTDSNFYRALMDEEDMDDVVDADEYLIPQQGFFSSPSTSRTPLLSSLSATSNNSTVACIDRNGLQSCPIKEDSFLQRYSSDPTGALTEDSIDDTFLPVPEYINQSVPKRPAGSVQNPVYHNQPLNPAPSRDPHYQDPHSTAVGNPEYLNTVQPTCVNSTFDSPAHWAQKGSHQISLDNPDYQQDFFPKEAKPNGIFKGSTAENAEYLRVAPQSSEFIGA
Experimental: (§1) The 50 µl reaction mixture contains 40 mM Tris, pH 7.4, 10 mM MgCl2, 0.1 mg/ml BSA, 1 mM DTT, 10 µM ATP, Kinase and the enzyme substrate. The compound was diluted in 10% DMSO and 5 µl of the dilution was added to a 50 µl reaction so that the final concentration of DMSO is 1% in all of the reactions. The assay was performed using a Kinase-Glo Plus luminescence kinase assay kit. It measures kinase activity by quantitating the amount of ATP remaining in solution following a kinase reaction. The luminescent signal from the assay is correlated with the amount of ATP present and is inversely correlated with the amount of kinase activity. The IC50 values were calculated using nonlinear regression with normalised dose-response fit using Prism GraphPad software.

ALK = ALK (Homo sapiens, UniProt Q9UM73); test: Kinase inhibition assay (Kinase-Glo Plus); assay type: biochemical; conditions: Figure 3A; 10 µM ATP; read-out: IC50 (nmol/L) ALK
ALK, sequence (Q9UM73 19-1620, species assumed): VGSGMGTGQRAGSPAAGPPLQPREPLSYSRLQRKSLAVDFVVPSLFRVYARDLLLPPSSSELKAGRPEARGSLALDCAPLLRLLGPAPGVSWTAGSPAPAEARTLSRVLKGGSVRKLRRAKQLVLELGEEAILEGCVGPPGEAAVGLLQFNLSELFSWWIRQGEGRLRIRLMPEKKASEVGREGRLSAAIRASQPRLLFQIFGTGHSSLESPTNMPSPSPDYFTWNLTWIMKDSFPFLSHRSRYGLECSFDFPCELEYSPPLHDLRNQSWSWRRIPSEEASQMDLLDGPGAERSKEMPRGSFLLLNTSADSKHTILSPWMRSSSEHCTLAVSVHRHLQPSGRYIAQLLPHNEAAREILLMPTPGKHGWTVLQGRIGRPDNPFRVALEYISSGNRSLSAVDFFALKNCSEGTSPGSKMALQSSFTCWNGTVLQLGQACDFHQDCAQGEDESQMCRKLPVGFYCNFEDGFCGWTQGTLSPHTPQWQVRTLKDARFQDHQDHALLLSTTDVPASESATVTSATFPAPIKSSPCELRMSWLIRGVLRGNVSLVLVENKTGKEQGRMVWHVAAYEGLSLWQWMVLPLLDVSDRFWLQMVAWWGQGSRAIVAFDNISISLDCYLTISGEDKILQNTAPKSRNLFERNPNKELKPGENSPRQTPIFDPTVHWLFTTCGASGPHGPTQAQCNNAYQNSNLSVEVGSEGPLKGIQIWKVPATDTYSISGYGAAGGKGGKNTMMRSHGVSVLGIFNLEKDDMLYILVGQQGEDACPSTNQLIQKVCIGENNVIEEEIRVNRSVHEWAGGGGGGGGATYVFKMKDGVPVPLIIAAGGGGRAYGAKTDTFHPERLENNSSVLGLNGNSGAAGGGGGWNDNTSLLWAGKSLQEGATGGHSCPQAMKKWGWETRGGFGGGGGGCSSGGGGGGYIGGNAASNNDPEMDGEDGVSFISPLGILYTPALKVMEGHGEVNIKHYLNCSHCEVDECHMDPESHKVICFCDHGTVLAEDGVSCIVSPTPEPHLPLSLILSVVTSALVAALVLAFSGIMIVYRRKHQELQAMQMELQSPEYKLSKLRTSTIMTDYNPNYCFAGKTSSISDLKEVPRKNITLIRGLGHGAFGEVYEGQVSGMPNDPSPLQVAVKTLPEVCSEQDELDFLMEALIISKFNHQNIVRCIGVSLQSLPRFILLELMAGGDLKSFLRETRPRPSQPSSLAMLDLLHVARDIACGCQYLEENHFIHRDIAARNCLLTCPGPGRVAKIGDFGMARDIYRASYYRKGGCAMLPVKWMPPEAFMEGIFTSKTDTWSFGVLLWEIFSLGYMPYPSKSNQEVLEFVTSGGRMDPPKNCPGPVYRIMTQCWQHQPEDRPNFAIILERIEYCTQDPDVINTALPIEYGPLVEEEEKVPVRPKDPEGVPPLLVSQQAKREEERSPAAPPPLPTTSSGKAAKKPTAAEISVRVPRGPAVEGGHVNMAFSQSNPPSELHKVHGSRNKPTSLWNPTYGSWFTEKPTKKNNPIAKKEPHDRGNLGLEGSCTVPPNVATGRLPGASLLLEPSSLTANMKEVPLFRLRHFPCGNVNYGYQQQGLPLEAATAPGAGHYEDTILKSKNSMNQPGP
Experimental: as §1

ROS1 = ROS1 (Homo sapiens, UniProt P08922); test: Kinase inhibition assay (Kinase-Glo Plus); assay type: biochemical; conditions: Figure 3A; 10 µM ATP; read-out: IC50 (nmol/L) ROS1
ROS1, sequence (P08922 1883-2347 limits assumed): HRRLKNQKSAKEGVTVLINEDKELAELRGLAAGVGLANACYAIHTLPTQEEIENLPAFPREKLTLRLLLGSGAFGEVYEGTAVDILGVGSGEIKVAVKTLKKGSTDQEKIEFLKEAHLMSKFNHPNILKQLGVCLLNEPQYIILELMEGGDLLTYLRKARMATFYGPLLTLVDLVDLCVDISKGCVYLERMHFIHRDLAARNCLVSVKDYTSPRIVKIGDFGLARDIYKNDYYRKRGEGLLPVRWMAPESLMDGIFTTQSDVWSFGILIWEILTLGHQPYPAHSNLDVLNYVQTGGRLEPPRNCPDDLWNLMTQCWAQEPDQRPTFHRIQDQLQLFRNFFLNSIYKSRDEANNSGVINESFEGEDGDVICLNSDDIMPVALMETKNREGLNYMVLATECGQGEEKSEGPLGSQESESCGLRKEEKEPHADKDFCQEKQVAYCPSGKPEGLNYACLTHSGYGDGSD
Experimental: as §1

[3] = tested on: thyroid cancer cells TPC-1; test: Transwell migration assay; assay type: cell-based; conditions: TPC-1 cells, 48 h
Experimental: A 24-well plate is filled with 500 μL of RPMI-1640 medium containing 20% serum per well, and Transwell chambers are placed in the wells. TCP-1 cells are resuspended in serum-free medium and mixed with compound 14f, then added to the upper chamber of the Transwell chambers. The 24-well plates are incubated at 37 °C with 5% CO2 for 48 h. After incubation, the plates are removed, and the chambers are immersed in 4% paraformaldehyde and fixed at room temperature for 10 min. Following fixation, 0.1% crystal violet staining solution is added to the 24-well plates, and the chambers are stained at room temperature for 30 min. After staining, the plates are washed, the upper layer of cells is gently wiped off with a cotton swab, and the chambers are air-dried. Images are captured using a microscope.

[4] = tested on: thyroid cancer cells TPC-1; test: MTT antiproliferative assay; assay type: cell-based
Experimental: Thyroid cancer cells TCP-1 were provided by Wuhan Servicebio Co., Ltd. TCP-1 cells are cultured in RPMI-1640 medium supplemented with 10% foetal bovine serum (FBS), 100 U/mL penicillin, and 0.1 mg/mL streptomycin. All cells are maintained in a humidified incubator at 37 °C with 5% CO2.
The TCP-1 cell line is seeded into a 96-well plate and incubated under conditions of 37 °C and 5% CO2. After the cells adhere, different concentrations of compounds are added and the incubation continues for 48 h under the same conditions. Subsequently, MTT reagent is added to the medium and the incubation is continued for an additional 4 h at 37 °C. After the incubation, the medium is aspirated, and 150 μL of DMSO solution is added to dissolve the purple-blue crystals by shaking. The absorbance of the solution is measured at a wavelength of 490 nm. The IC50 value of the compounds is calculated using SPSS software version 20.0.

FAK [5] = target: T1, FAK (Homo sapiens, UniProt Q05397); test: Kinase inhibition assay (Kinase-Glo Plus); assay type: biochemical; conditions: 10 µM ATP
T1 sequence (Q05397 whole entry, species assumed): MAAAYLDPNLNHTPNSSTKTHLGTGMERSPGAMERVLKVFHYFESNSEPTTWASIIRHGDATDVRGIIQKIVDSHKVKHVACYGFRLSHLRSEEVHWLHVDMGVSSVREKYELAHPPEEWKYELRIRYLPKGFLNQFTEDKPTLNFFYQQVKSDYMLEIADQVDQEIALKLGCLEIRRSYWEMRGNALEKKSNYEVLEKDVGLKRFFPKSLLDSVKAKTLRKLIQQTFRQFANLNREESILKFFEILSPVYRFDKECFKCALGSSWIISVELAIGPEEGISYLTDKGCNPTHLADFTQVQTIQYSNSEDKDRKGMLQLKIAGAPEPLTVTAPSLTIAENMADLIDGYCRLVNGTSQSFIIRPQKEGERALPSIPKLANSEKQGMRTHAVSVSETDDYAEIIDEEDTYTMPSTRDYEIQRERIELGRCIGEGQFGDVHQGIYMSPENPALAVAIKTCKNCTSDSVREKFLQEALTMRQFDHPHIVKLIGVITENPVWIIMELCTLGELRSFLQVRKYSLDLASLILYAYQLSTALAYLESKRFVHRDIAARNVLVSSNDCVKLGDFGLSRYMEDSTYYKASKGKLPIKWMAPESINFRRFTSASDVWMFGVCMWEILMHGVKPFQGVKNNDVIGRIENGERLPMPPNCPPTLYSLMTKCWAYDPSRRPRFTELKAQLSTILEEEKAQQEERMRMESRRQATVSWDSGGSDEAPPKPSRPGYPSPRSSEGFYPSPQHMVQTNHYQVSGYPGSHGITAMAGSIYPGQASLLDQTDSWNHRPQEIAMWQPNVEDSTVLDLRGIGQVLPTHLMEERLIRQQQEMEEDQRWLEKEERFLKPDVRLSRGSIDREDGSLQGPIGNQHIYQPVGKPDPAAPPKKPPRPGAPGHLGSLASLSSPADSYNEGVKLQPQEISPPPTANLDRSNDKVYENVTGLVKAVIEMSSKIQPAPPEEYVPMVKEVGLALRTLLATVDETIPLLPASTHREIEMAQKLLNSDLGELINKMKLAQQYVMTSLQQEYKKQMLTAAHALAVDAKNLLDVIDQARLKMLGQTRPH
Text: It measures kinase activity by quantitating the amount of ATP remaining in solution following a kinase reaction. The luminescent signal from the assay is correlated with the amount of ATP present and is inversely correlated with the amount of kinase activity.

[6] = tested on: thyroid cancer cells TPC-1; test: Wound healing assay; assay type: cell-based; conditions: TPC-1 cells, various durations
Experimental: TCP-1 cells are seeded into a 6-well cell culture plate and cultured in an incubator at 37 °C with 5% CO2. Once the cells uniformly cover the bottom of the well, a vertical line is drawn in the centre of each well to mark the initial scratch. Fresh medium is replaced and different concentrations of 14f are added. Photographs are taken to document the healing at 0 h, 24 h, 36 h and 48 h post-scratch. Images are processed using ImageJ software. Data analysis is performed using GraphPad Prism software version 8.0.

FAK [7] = target: T1, FAK; test: Western blot of FAK and its phosphorylation sites in TPC-1 cells; assay type: cell-based; conditions: TPC-1 cells, 50, 100 and 200 nmol/L, 48 h
Experimental: Different concentrations of compound 14f are applied to TCP-1 cells for 48 h, after which the cells are collected and lysed in RIPA lysis buffer (Solarbio, R0010). Protein concentration is determined using the BCA Protein Concentration Assay Kit (Solarbio, PC0020). Proteins were denatured using 4X SDS-PAGE loading buffer (Solarbio, P1016) at 100 °C for 10 min. The denatured protein samples are separated by SDS-PAGE electrophoresis. Proteins are transferred from the gel to nitrocellulose (NC) membrane (Pall Corporation, P/N 66485) and blocked with 5% non-fat milk for 1 h at room temperature. After washing with TBST, the primary antibody is added and incubated overnight at 4 °C. The membrane is washed with TBST and then incubated with the secondary antibody at room temperature for 1–2 h. The membrane is washed again with TBST, and the protein bands are visualised using an ECL (Solarbio, PE0010) ultra-sensitive luminescent reagent, followed by imaging with a chemiluminescence imaging analyser (Cytiva, […] ImageQuant 800, JPN). The ladder used for Western Blot experiments was purchased from Thermo Scientific (Thermo Scientific, catalog number:26616). […]

TPC-1 cells [8] = test: Colony formation assay; assay type: cell-based; conditions: 5-day treatment
Experimental: TCP-1 cells are plated at a density of 10,000 to 20,000 cells per well in a 6-well plate. After cell adhesion, the cells are treated with different concentrations of compound 14f and cultured for 5 days in an incubator. At the end of the culture period, the medium is aspirated, and the cells are washed three times with PBS. The cells are then fixed with 4% paraformaldehyde for 20 min at room temperature. After fixation, the fixative is removed, and the cells are stained with 0.1% crystal violet at room temperature for 20 min. Following staining, the cells are rinsed with PBS until the purple colour is completely washed away, and then air-dried for image acquisition.

Compound: CNC(=O)c1ccccc1Nc1nc(N/N=C/c2ccc(F)cc2)ncc1Cl [14f, (E)-2-((5-chloro-2–(2-(4-fluorobenzylidene)hydrazineyl)pyrimidin-4-yl)amino)-N-methylbenzamide]
- number of cells positive for EdU [1]: significant reduction
- cell cycle distribution (TPC-1 cells [2]): pronounced G1 phase arrest
- IC50 (EGFR): > 1000 nmol/L
- IC50 (ALK): 285 nmol/L
- IC50 (ROS1): 593 nmol/L
- number of cells that traversed through the membrane [3]: significant reduction
- IC50 ([4]; Homo sapiens, TPC1, 48 h, MTT assay, 48 h, average with SD (n = 3, duplicate), read-out: IC50 (μM), antiproliferative activity against thyroid cancer cells TPC-1): 0.113 ± 0.003 µM
- times more potent than TAE-226 in TPC-1 cells ([4]; ratio of IC50 values, TPC-1 cells): approximately 8.57 times
- IC50 (FAK [5]): 35 nM
- wound healing (cell migration) [6]: significant inhibitory effect on cell migration
- expression level of FAK (FAK [7]): did not affect the expression level of FAK; also recorded: no significant changes
- concentration from which colony formation is discernibly inhibited (TPC-1 cells [8]): ≥ 100 nmol/L
- melting point: 176.1 to 177.8 °C
